Test results published in US9199999B2, “Substituted imidazopyrazines” (Bayer Intellectual Property GmbH, priority 2010, dated 2015).
Read-outs that look alike come from different tables or passages of the source.

Experiments:
human kinase Mps-1 [1] = target: T1, human kinase Mps-1 (Homo sapiens (Human), UniProt P33981); test: biochemical
human kinase Mps-1 [2] = target: T1, human kinase Mps-1; conditions: read-out: Mps-1 IC50; N-terminally GST-tagged human full length recombinant Mps-1; 10 μM ATP; 1 μM biotinylated peptide substrate; 60 min at 22° C.

T1 sequence (P33981 whole entry): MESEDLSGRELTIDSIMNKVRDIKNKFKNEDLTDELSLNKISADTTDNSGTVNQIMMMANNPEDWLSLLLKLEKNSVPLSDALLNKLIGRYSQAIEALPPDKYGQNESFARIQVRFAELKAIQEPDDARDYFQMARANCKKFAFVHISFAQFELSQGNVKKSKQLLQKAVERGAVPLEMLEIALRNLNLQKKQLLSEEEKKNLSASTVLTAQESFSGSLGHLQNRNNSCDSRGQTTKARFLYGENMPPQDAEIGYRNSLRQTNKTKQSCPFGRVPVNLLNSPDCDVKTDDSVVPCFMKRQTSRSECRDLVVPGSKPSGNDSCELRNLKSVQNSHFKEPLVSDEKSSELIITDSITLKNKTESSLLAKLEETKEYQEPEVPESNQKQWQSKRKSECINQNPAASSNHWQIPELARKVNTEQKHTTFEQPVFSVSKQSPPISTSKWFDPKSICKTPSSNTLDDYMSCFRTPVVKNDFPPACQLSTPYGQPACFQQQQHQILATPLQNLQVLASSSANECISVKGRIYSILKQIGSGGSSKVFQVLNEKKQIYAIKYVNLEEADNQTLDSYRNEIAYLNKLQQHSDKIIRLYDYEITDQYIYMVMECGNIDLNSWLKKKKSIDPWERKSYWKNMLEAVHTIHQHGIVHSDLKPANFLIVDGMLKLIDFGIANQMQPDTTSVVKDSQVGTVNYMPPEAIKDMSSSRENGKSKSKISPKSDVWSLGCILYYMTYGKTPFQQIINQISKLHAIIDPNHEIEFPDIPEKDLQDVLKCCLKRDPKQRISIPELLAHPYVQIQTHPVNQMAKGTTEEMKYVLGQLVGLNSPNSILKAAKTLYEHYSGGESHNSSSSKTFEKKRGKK

| SMILES | IC50 (human kinase Mps-1 [1]) | IC50 (human kinase Mps-1 [2]) |
| --- | --- | --- |
| NCCCNc1nc(C#CCO)cn2c(-c3ccc(-c4cnc(C5CC5)[nH]4)cc3)cnc12 [Example 60, 3-{8-[(3-Aminopropyl)amino]-3-[4-(2-cyclopropyl-1H-imidazol-5-yl)phenyl]imidazo[1,2-a]pyrazin-6-yl}prop-2-yn-1-ol] | 230 nM | – |
| Cc1cc(-c2cnc3c(NCCC(F)(F)F)nc(C#CCO)cn23)ccc1C(=O)NC1C[C@@H]1F (stereo in doubt) [Example 76, N-[rel(1S,2S)-2-fluorocyclopropyl]-4-{6-(3-hydroxyprop-1-yn-1-yl)-8-[(3,3,3-trifluoropropyl)amino]imidazo[1,2-a]pyrazin-3-yl}-2-methylbenzamide] | 43 nM | – |
| CC(C)CNc1nc(C#Cc2ccccc2F)cn2c(-c3ccc(S(=O)(=O)NC4CC4)cc3)cnc12 [Example 3, N-cyclopropyl-4-{6-[(2-fluorophenyl)ethynyl]-8-(isobutylamino)imidazo[1,2-a]pyrazin-3-yl}benzenesulfonamide] | – | 20000 nM |
